Columns and labels:
[1] = test system: methemoglobin (metHb); design: species or system rats; conditions: rat, in vivo
[2] = test system: methemoglobin (metHb); conditions: in vivo; cited from earlier work

Structure (SMILES) | metHb levels achieved (can reach) [1] | maximum metHb levels [2]
CC(C)CCON=O [Isoamyl Nitrite, 3-methylbutyl nitrite] | ≥ 20.0% | 
CCCCCO[N+](=O)[O-] [amyl nitrate] |  | 3.45-7.0%
